In patent US20080207614A1, “QUINAZOLINE DERIVATIVES FOR THE TREATMENT AND PREVENTION OF DIABETES AND OBESITY” (SK CHEMICALS CO., LTD., priority 2004, published 2008):

How the values were obtained:
AMPK = test: Measurement of AMPK activity by Western blot in C2C12 cells; format: cell-based; design: key to AMPK activity (degree of phosphorylation of serine-79 and threonine-172): fold increase in threonine-172 phosphorylation; settings: 10 μM for 50 minutes, no superscript: Western blot of serine-79 and threonine-172 phosphorylation
Procedure: C2C12 cells were cultured and differentiated in the same manner as in Experimental Example 1. Treatment with the test materials was also performed in the same manner as in Experimental Example 1 (10 μM for 50 minutes). The culture medium was removed and the cells were washed for 2 times with PBS and protein extracts were obtained using a lysis buffer (50 mM tris-HCl, pH 7.4, 1% NP-40, 0.25% sodium deoxycholate, 150 mM NaCl, 1 mM EDTA, 1 mM PMSF, 1 mM sodium o-vanadate, 1 mM NaF, 1 μg/mL apronitin, 1 μg/mL leu-peptin, 1 μg/mL pepstatin). The AMPK activity was determined from Western blot analysis of the degree of phosphorylation of serine-79 […] acetyl CoA carboxylase and the degree of phosphorylation of threonine-172. The amount of ERK (extracellular signal regulated protein kinase) was confirmed by Western blot in order to quantify the proteins.
The result of Western blot analysis is given in Table 3 below, wherein “strong” means that the degree of phosphorylation of threonine-172 increased by 3 times or more, “mild” means that the degree of phosphorylation of threonine-172 increased by 1 to 3 times and “weak” means that the degree of phosphorylation of threonine-172 increased by less than 1 time.

C2C12 muscle cells = test: Analysis of glucose absorption (2-deoxyglucose) in differentiated C2C12 muscle cells; format: cell-based; settings: test materials 10 μM, times relative to control group
How it was run: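 Uptake of 0.2 μCi 2-deoxyglucose over 20 min, counted radiometrically in lysed cells. Before tracer, compounds (10 μM) were applied for 30 min to C2C12 cells differentiated 6 days in 1% serum and equilibrated 3 h in 5 mM glucose KRB.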

Compound | AMPK activity (degree of phosphorylation of serine-79 and threonine-172) (AMPK) | Glucose absorption (C2C12 muscle cells)
COc1cccc(CNc2nc(N3CCOCC3)nc3ccccc23)c1 [Compound 281, (3-Methoxybenzyl)-(2-morpholino-4-ylquinazolino-4-yl)-amine] | 0.9 | –
COc1ccc(OC)c(CNc2nc(-c3cccs3)nc3ccccc23)c1 [Compound 358, (2,5-Dimethoxybenzyl)-(2-thiopenyl-2-ylquinazolino-4-yl)-amine] | 0.8 | –
COc1cc(CNc2nc(N3CCCC3)nc3ccccc23)cc(OC)c1OC [Compound 311, (2-Pyrrolidino-1-ylquinazolino-4-yl)-(3,4,5-trimethoxybenzyl)-amine] | 0.2 | –
CC(C)c1nc(OCc2ccccc2)c2ccccc2n1 [Compound 415, 4-Benzyloxy-2-isopropylquinazoline] | 1.1 | –
CCCc1nc(NCc2c(OC)cc(OC)cc2OC)c2ccccc2n1 [Compound 403, (2-Propylquinazolino-4-yl)-(2,4,6-trimethoxybenzyl)-amine] | 1.3 | –
COc1ccc(CNc2nc(-c3ccco3)nc3ccccc23)cc1OC [Compound 344, (3,4-Dimethoxybenzyl)-(2-furano-2-ylquinazolino-4-yl)-amine] | 0.4 | –
COc1cccc(CNc2nc(-c3ccco3)nc3ccccc23)c1OC [Compound 342, (2,3-Dimethoxybenzyl)-(2-furano-2-ylquinazolino-4-yl)-amine] | 1.0 | –
COc1cc(CNc2nc(-c3cccs3)nc3ccccc23)cc(OC)c1 [Compound 354, (3,5-Dimethoxybenzyl)-(2-thiopenyl-2-ylquinazolino-4-yl)-amine] | 0.6 | –
COc1cc(CNc2nc(N3CCCCC3)nc3ccccc23)cc(OC)c1OC [Compound 312, (2-Piperidino-1-ylquinazolino-4-yl)-(3,4,5-trimethoxybenzyl)-amine] | 0.3 | –
COc1ccc(CNc2nc(N3CCN(C)CC3)nc3ccccc23)cc1 [Compound 286, (4-Methoxybenzyl)-[2-(4-methylpiperazino-1-yl)-quinazolino-4-yl]-amine] | 1.0 | –
CCCc1nc(NCc2ccc(OC)cc2OC)c2ccccc2n1 [Compound 401, (2,4-Dimethoxybenzyl)-(2-propylquinazolino-4-yl)-amine] | 1.4 | –
COc1ccccc1CNc1nc(N2CCN(C)CC2)nc2ccccc12 [Compound 278, (2-Methoxybenzyl)-[2-(4-methylpiperazino-1-yl)-quinazolino-4-yl]-amine] | 1.2 | –
COc1ccc(OC)c(CNc2nc(-c3ccco3)nc3ccccc23)c1 [Compound 347, (2,5-Dimethoxybenzyl)-(2-furano-2-ylquinazolino-4-yl)-amine] | 1.2 | –
COc1ccc(CNc2nc(-c3ccco3)nc3ccccc23)c(OC)c1 [Compound 346, (2,4-Dimethoxybenzyl)-(2-furano-2-ylquinazolino-4-yl)-amine] | 0.8 | –
COc1ccc(CNc2nc(N3CCN(C)CC3)nc3ccccc23)c(OC)c1 [Compound 294, (2,4-Dimethoxybenzyl)-[2-(4-methylpiperazino-1-yl)-quinazolino-4-yl]-amine] | 0.4 | –
COc1ccccc1CNc1nc(-c2cccs2)nc2ccccc12 [Compound 349, (2-Methoxybenzyl)-(2-thiopenyl-2-ylquinazolino-4-yl)-amine] | 2.1 | –
COc1cccc(CNc2nc(N3CCCC3)nc3ccccc23)c1 [Compound 279, (3-Methoxybenzyl)-(2-pyrrolidino-1-ylquinazolino-4-yl)-amine] | 1.3 | –
CCCc1nc(NCc2cc(OC)ccc2OC)c2ccccc2n1 [Compound 402, (2,5-Dimethoxybenzyl)-(2-propylquinazolino-4-yl)-amine] | 0.5 | –
COc1cc(CNc2nc(C(OC)c3ccccc3)nc3ccccc23)cc(OC)c1OC (centres unmarked) [Compound 367, [2-(Methoxyphenylmethyl)-quinazolino-4-yl]-(3,4,5-trimethoxybenzyl)-amine] | 2.2 | –
COc1ccc(CNc2nc(-c3cccs3)nc3ccccc23)c(OC)c1 [Compound 357, (2,4-Dimethoxybenzyl)-(2-thiopenyl-2-ylquinazolino-4-yl)-amine] | 0.7 | –
CC(C)c1nc(SCc2ccccc2)c2ccccc2n1 [Compound 416, 4-Benzylsulfanyl-2-isopropylquinazoline] | 0.7 | –

Compound | AMPK activity (degree of phosphorylation of serine-79 and threonine-172) (AMPK) | Glucose absorption (C2C12 muscle cells)
COc1ccc(CNc2ncnc3ccccc23)cc1OC [Compound 410, (3,4-Dimethoxybenzyl)-quinazolino-4-ylamine] | 1.1 | –
COc1ccc(OC)c(CNc2nc(N3CCCC3)nc3ccccc23)c1 [Compound 295, (2,5-Dimethoxybenzyl)-(2-pyrrolidino-1-ylquinazolino-4-yl)-amine] | 0.2 | –
COc1ccc(OC)c(CNc2nc(N3CCOCC3)nc3ccccc23)c1 [Compound 297, (2,5-Dimethoxybenzyl)-(2-morpholino-4-ylquinazolino-4-yl)-amine] | 0.8 | –
COc1cc(OC)c(CNc2nc(N3CCCCC3)nc3ccccc23)c(OC)c1 [Compound 316, (2-Piperidino-1-ylquinazolino-4-yl)-(2,4,6-trimethoxybenzyl)-amine] | 1.2 | –
COc1ccc(CNc2nc(-c3ccc(Cl)cc3)nc3ccccc23)cc1 [Compound 261, [2-(4-Chlorophenyl)-quinazolino-4-yl]-(4-methoxybenzyl)-amine] | – | 1.1
CC(C)c1nc(NCCOCCO)c2ccccc2n1 [Compound 185, 2-[2-(2-Isopropylquinazolino-4-ylamino)-ethoxy]-ethanol] | – | 1.4
COc1cccc(CNc2nc(C(C)(C)C)nc3ccccc23)c1 [Compound 188, (2-tert-Butylquinazolino-4-yl)-(3-methoxybenzyl)-amine] | – | 1.0
OCCOCCNc1nc(-c2cccnc2)nc2ccccc12 [Compound 245, 2-[2-(2-Pyridino-3-ylquinazolino-4-ylamino)-ethoxy]-ethanol] | – | 1.2
COc1ccc(CNc2nc(-c3ccncc3)nc3ccccc23)cc1 [Compound 249, (4-Methoxybenzyl)-(2-pyridino-4-ylquinazolino-4-yl)-amine] | – | 0.9
CCCCCCCCCCCCCCCCNc1nc(-c2ccccc2)nc2ccccc12 [Compound 99, Hexadecyl-(2-phenylquinazolino-4-yl)-amine] | – | 1.4
COc1ccc(Nc2nc(-c3ccccc3)nc3ccccc23)cc1O [Compound 84, 2-Methoxy-5-(2-phenylquinazolino-4-ylamino)phenol] | – | 1.0
Fc1ccccc1CNc1nc(-c2ccccc2)nc2ccccc12 [Compound 94, (2-Fluorobenzyl)-(2-phenylquinazolino-4-yl)-amine] | – | 1.3
FC(F)(F)c1cccc(CNc2nc(C3CCCCC3)nc3ccccc23)c1 [Compound 202, (2-Cyclohexylquinazolino-4-yl)-(3-trifluoromethylbenzyl)-amine] | – | 1.4
c1ccc(-c2nc(NCCC(c3ccccc3)c3ccccc3)c3ccccc3n2)cc1 [Compound 136, (3,3-Diphenylpropyl)-(2-phenylquinazolino-4-yl)-amine] | – | 1.3
CC(C)c1nc(NCCO)c2ccccc2n1 [Compound 186, 2-(2-Isopropylquinazolino-4-ylamino)-ethanol] | – | 1.0
OCCOCCNc1nc(-c2ccc(Cl)cc2)nc2ccccc12 [Compound 269, 2-{2-[2-(4-Chlorophenyl)-quinazolino-4-ylamino]-ethoxy}-ethanol] | – | 1.2
c1ccc(-c2nc(NCC3CCCC3)c3ccccc3n2)cc1 [Compound 159, Cyclopentylmethyl-(2-phenylquinazolino-4-yl)-amine] | – | 2.6
COc1cccc(CNc2nc(Cc3ccccc3)nc3ccccc23)c1 [Compound 212, (2-Benzylquinazolino-4-yl)-(3-methoxybenzyl)-amine] | – | 2.0
Fc1cccc(CNc2nc(-c3ccccc3)nc3ccccc23)c1 [Compound 63, (3-Fluorobenzyl)-(2-phenylquinazolino-4-yl)-amine] | – | 1.1
CCSc1nc(NCCc2ccccn2)c2ccccc2n1 [Compound 46, (2-Ethylsulfanylquinazolino-4-yl)-(2-pyridino-2-ylethyl)-amine] | – | 1.1
